Test results: patent publication US9896710B2, “Glycosyltransferase derived from Dolwoe and use thereof” (KOREA ADVANCED INSTITUTE OF SCIENCE AND TECHNOLOGY, priority 2014, dated 2018)

System: UDP-glycosyltransferase GpUGT23
Assay: In vitro glycosyltransferase assay of purified recombinant GpUGT23 with ginsenoside substrates and UDP-glucose
Type: biochemical, Dolwoe (Gynostemma pentaphyllum)
Conditions: purified GpUGT23 30 μg, ginsenoside 5 mM, UDP-glucose 50 mM, 10 mM PBS pH 7, 37° C., 12 hours, products: CK->gypenoside LXXV, F2->gypenoside XVII, Rd->Rb1, F1->notoginsenoside U; for conversion of the ginsenoside by GpUGT23 (glycosyltransfer activity), HPLC: UV 203 nm (FIGS. 3 and 4); for conversion of the ginsenoside by GpUGT23 (glycosyltransfer activity), TLC: TLC (FIG. 2)
Experimental: A glycosyltransferase assay was performed in a reaction buffer (10 mM PBS buffer, pH 7) containing the purified GpUGT23 (30 μg), a ginsenoside compound (5 mM) and UDP-glucose (50 mM). For this assay, 4 different types of ginsenosides, including CK (Compound K), F2, Rd, and F1, were used and reacted with the enzyme of the present invention.
The reaction mixture was incubated at 37° C. for 12 hours, and then the products were analyzed by thin-layer chromatography (TLC) or high performance liquid chromatography (HPLC).
TLC analysis was performed using a mobile phase (acetone:methanol:DDW=65:35:10 vol/vol) and a 60F254 silica gel plate (Merck, Germany). The resolved product on the TLC plate was detected by spraying the plate with 10% (vol/vol) sulfuric acid (H2SO4) and heating it at 110° C. for 5 minutes (FIG. 2).
HPLC analysis was performed using ODS(2) C18 column (Phenomenex, USA). Water and acetonitrile gradient application time and a component ratio are as follows: at a flow rate of 1 mL per minute, at 0 minutes, 68% water and 32% acetonitrile; 8 minutes, 35% water and 65% acetonitrile; 12 minutes, 0% water and 100% acetonitrile; 20 minutes, 0% water and 100% acetonitrile; 20.1 minutes, 68% water and 32% acetonitrile; and 28 minutes, 68% water and 32% acetonitrile (FIGS. 3 and 4).
Ginsenosides were detected by using a UV-detector (Agilent, USA) at a wavelength of 203 nm.
Substrate specificity and regioselectivity of GpUGT23 were examined by the method described in Example 2.
First, the recombinant GpUGT of Example 1, GpUGT23, was reacted with 9 types of ginsenosides (PPD, Rh2, Rg3, CK, F2, Rd, PPT, F1, and Rh1) in the presence of UDP-glucose, and the reaction products of CK, F2, Rd, and F1 were analyzed by TLC (thin-layer chromatography).
To further analyze these, 4 different types of ginsenosides (CK, F2, Rd, and F1) were incubated with GpUGT23, and then the products converted by the recombinant GpUGT23 were analyzed by TLC, and the results are shown in FIG. 2. The results were confirmed by comparing their migrating spots with migrating spots of CK, Gyp75 (gypenoside LXXV), F2, Gyp17 (gypenoside XVII), Rd, Rb1, and F1 used as reference samples.

| Structure (SMILES) | conversion of the ginsenoside by GpUGT23 (glycosyltransfer activity), HPLC | conversion of the ginsenoside by GpUGT23 (glycosyltransfer activity), TLC |
| --- | --- | --- |
| CC(C)=CCCC(C)(O)[C@H]1CC[C@]2(C)[C@@H]1[C@H](O)C[C@@H]1[C@@]3(C)CC[C@H](O)C(C)(C)[C@@H]3CC[C@]12C (stereo in doubt) [PPD, protopanaxadiol] | did not react |  |
| CC(C)=CCC[C@](C)(O[C@@H]1O[C@H](CO)[C@@H](O)[C@H](O)[C@H]1O)[C@H]1CC[C@]2(C)[C@@H]1[C@H](O)C[C@@H]1[C@@]3(C)CC[C@H](O)C(C)(C)[C@@H]3CC[C@]12C [CK, Compound K] | converted | converted |
| CC(C)=CCC[C@](C)(O[C@@H]1O[C@H](CO)[C@@H](O)[C@H](O)[C@H]1O)[C@H]1CC[C@]2(C)[C@@H]1[C@H](O)C[C@@H]1[C@@]3(C)CC[C@H](O)C(C)(C)[C@@H]3[C@@H](O)C[C@]12C [F1] | converted | converted |
| CC(C)=CCC[C@](C)(O[C@@H]1O[C@H](CO)[C@@H](O)[C@H](O)[C@H]1O)[C@H]1CC[C@]2(C)[C@@H]1[C@H](O)C[C@@H]1[C@@]3(C)CC[C@H](O[C@@H]4O[C@H](CO)[C@@H](O)[C@H](O)[C@H]4O)C(C)(C)[C@@H]3CC[C@]12C [F2] | converted | converted |
| CC(C)=CCC[C@](C)(O)[C@H]1CC[C@]2(C)[C@@H]1[C@H](O)C[C@@H]1[C@@]3(C)CC[C@H](O)C(C)(C)[C@@H]3[C@@H](O)C[C@]12C [PPT, protopanaxatriol] | did not react |  |
| CC(C)=CCC[C@](C)(O[C@@H]1O[C@H](CO)[C@@H](O)[C@H](O)[C@H]1O)[C@H]1CC[C@]2(C)[C@@H]1[C@H](O)C[C@@H]1[C@@]3(C)CC[C@H](O[C@@H]4O[C@H](CO)[C@@H](O)[C@H](O)[C@H]4O[C@@H]4O[C@H](CO)[C@@H](O)[C@H](O)[C@H]4O)C(C)(C)[C@@H]3CC[C@]12C [Rd] | converted | converted |
| CC(C)=CCC[C@](C)(O)[C@H]1CC[C@]2(C)[C@@H]1[C@H](O)C[C@@H]1[C@@]3(C)CC[C@H](O)C(C)(C)[C@@H]3[C@@H](O[C@@H]3O[C@H](CO)[C@@H](O)[C@H](O)[C@H]3O[C@@H]3O[C@@H](C)[C@H](O)[C@@H](O)[C@H]3O)C[C@]12C [Rg2] | did not transfer a sugar |  |
| CC(C)=CCC[C@](C)(O)[C@H]1CC[C@]2(C)[C@@H]1[C@H](O)C[C@@H]1[C@@]3(C)CC[C@H](O[C@@H]4O[C@H](CO)[C@@H](O)[C@H](O)[C@H]4O[C@@H]4O[C@H](CO)[C@@H](O)[C@H](O)[C@H]4O)C(C)(C)[C@@H]3CC[C@]12C [Rg3] | did not react |  |
| CC(C)=CCC[C@](C)(O)[C@H]1CC[C@]2(C)[C@@H]1[C@H](O)C[C@@H]1[C@@]3(C)CC[C@H](O)C(C)(C)[C@@H]3[C@@H](O[C@@H]3O[C@H](CO)[C@@H](O)[C@H](O)[C@H]3O)C[C@]12C [Rh1] | did not react |  |
| CC(C)=CCC[C@](C)(O)[C@H]1CC[C@]2(C)[C@@H]1[C@H](O)C[C@@H]1[C@@]3(C)CC[C@H](O[C@@H]4O[C@H](CO)[C@@H](O)[C@H](O)[C@H]4O)C(C)(C)[C@@H]3CC[C@]12C [Rh2] | did not react |  |
